Experimental data: patent publication US10494378B2, “Fused ring pyrimidine compound, intermediate, and preparation method, composition and use thereof” (GUANGZHOU MAXINOVEL PHARMACEUTICALS CO., LTD., priority 2015, dated 2019)

Legend:
Format in all cases: biochemical
[1] = target: T1, JAK3 kinase (Homo sapiens, UniProt P52333); experiment: IC50 evaluation assay on JAK3 kinase inhibition (Caliper); details: adenosine triphosphate at Km; 1 hour at 28° C.; average of two tests; read-out: IC50 (nM) inhibiting JAK 3 kinase
T1 construct: purchased Carna 08-046
T1 sequence (P52333 1-1124): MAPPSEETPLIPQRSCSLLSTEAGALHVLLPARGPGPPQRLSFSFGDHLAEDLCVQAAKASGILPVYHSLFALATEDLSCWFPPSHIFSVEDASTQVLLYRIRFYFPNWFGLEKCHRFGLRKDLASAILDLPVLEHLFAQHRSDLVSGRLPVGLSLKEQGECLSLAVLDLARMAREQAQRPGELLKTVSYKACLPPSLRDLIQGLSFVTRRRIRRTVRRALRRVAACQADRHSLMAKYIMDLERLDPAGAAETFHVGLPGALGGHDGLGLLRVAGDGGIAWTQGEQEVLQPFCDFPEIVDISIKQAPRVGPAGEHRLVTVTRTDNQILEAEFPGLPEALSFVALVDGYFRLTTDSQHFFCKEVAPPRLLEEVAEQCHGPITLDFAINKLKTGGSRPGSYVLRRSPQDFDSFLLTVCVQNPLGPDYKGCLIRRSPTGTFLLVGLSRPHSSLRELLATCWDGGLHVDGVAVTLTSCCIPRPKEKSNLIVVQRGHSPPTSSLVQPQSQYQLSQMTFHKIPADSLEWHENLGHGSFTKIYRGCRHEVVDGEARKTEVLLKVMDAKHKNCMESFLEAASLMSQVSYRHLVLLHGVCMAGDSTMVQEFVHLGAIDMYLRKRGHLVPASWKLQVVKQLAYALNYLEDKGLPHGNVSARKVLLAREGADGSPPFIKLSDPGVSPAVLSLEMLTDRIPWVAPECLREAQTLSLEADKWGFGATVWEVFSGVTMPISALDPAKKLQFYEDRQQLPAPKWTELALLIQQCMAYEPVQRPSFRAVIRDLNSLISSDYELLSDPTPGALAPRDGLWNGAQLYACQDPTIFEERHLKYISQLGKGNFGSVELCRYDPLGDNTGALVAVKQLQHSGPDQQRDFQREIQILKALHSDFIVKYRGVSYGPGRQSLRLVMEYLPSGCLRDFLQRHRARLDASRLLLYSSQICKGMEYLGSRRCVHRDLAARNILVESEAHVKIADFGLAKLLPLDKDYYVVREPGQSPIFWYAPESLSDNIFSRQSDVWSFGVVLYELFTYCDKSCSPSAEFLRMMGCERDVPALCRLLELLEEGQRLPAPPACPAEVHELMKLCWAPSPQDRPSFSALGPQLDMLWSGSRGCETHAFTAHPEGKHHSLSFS
Method: (§1) 1. The compound was dissolved in 100% DMSO, diluted into solutions with appropriate concentration gradients with water according to experimental requirement, and added to a 384-well plate.
(§2) 2. JAK2 kinase (Carna, Cat. No. 08-045, Lot. No. 07CBS-1927) and JAK3 kinase (Carna, Cat. No. 08-046, Lot. No. 08CBS-0371) were diluted to the optimum concentration with the following buffer solution: 50 mM HEPES, pH 7.5, 0.0015% Brij-35, 2 mM DTT. JAK1 kinase (Carna, Cat. No. 08-144, Lot. No. 11CBS-0144D) was diluted to the optimum concentration with the following buffer solution: 25 mM HEPES pH 7.5, 0.01% Brij-35, 2 mM DTT, 0.01M Triton. Transfer to the 384-well plate and incubated with the compound for a period of time.
(§3) 3. […] The substrate of JAK1 was diluted to the optimum concentration with the following buffer: 25 mM HEPES, pH 7.5, 0.01% Brij-35, 10 mM MgCl2, 0.01M Triton, adenosine triphosphate at Km. Add to the 384-well plate to initiate there action and react for 1 hour at 28° C.
(§4) 4. 1 Eq. of sulfuric acid solution was added to terminate the reaction, the conversion rate was read with Caliper Reader. The inhibition rate was calculated as the average of two tests.

[2] = target: T2, JAK1 kinase (Homo sapiens, UniProt P23458); experiment: IC50 evaluation assay on JAK1 kinase inhibition (Caliper); details: adenosine triphosphate at Km; 1 hour at 28° C.; average of two tests; read-out: IC50 (nM) inhibiting JAK 1 kinase
T2 construct: purchased Carna 08-144
T2 sequence (P23458 whole entry): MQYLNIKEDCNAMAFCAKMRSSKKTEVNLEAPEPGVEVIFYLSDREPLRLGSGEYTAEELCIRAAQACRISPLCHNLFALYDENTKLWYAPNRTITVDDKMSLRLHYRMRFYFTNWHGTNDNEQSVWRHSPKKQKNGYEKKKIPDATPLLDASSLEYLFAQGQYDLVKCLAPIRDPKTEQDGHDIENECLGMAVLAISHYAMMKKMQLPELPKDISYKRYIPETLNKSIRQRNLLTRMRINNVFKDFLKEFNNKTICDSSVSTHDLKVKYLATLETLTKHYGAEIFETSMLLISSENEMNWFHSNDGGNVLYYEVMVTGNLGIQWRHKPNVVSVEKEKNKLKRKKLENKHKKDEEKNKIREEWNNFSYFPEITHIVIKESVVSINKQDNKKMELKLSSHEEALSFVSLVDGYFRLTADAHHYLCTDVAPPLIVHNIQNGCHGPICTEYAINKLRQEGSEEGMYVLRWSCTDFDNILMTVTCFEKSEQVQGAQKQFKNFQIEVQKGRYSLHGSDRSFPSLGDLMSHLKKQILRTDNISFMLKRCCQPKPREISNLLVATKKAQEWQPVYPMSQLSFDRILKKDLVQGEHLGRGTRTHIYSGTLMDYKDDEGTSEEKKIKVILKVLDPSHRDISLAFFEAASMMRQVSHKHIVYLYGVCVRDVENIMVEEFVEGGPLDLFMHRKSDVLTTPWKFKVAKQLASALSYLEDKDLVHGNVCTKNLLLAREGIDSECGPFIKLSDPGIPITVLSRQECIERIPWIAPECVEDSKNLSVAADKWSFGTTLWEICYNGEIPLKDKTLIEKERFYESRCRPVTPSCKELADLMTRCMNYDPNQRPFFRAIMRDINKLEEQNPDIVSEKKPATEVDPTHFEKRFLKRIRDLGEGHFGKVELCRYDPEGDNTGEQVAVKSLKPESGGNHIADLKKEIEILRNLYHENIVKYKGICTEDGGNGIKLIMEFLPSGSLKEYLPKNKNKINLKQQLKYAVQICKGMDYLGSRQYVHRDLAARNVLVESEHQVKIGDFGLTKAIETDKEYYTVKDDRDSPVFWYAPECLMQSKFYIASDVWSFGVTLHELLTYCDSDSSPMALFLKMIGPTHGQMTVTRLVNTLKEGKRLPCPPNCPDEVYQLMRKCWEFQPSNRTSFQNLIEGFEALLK
Method: as §1, §2, §3, §4

[3] = target: T3, JAK2 kinase (Homo sapiens, UniProt O60674); experiment: IC50 evaluation assay on JAK2 kinase inhibition (Caliper); details: adenosine triphosphate at Km; 1 hour at 28° C.; average of two tests; read-out: IC50 (nM) inhibiting JAK 2 kinase
T3 construct: purchased Carna 08-045
T3 sequence (O60674 whole entry): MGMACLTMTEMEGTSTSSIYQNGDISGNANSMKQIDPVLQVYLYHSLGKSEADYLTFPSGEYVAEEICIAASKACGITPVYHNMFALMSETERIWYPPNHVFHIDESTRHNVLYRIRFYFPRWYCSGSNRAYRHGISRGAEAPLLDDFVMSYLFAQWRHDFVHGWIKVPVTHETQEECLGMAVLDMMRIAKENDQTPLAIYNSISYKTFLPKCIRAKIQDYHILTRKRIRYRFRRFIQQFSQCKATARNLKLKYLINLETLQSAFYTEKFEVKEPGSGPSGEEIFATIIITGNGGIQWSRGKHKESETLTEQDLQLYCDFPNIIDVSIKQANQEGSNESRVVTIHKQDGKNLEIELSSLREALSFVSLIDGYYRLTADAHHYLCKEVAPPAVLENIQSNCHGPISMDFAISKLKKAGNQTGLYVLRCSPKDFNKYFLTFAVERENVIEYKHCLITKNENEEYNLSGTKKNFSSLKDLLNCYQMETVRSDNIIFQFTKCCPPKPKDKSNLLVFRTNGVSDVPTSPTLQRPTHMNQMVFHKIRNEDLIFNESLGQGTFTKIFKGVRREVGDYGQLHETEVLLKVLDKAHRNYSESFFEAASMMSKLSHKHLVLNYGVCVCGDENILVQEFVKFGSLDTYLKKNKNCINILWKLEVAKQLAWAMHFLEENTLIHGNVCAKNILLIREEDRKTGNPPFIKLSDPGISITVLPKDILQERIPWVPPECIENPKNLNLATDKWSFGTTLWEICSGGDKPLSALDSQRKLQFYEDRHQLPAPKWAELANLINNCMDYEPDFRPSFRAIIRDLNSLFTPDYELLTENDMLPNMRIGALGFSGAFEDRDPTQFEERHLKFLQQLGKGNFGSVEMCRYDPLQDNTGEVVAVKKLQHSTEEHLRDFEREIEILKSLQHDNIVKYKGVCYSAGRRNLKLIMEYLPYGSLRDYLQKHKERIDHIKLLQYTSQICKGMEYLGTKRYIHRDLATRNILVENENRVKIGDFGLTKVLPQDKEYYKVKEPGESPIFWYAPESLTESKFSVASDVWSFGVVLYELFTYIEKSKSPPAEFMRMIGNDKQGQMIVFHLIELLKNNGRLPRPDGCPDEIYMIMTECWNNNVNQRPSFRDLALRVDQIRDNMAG
Method: as §1, §2, §3, §4

IC50 [1] [nM]	IC50 [2] [nM]	IC50 [3] [nM]	Structure (SMILES)
12.9	18.5	8.9	Cc1sc2cnc(Nc3cnn(C)c3)nc2c1-c1ccccc1Cl [Compound 33, N-[7-(2-chlorophenyl)-6-methylthieno[3,2-d]pyrimidinyl-2-yl]-1-methyl-1H-pyrazol-4-amine]
6.4	34	6.1	COc1cc(OCCCN2CCC2)ccc1-c1c(C)sc2cnc(Nc3cnn(C)c3)nc12 [Compound 16]
0.41	13	0.82	Cc1sc2cnc(Nc3cnn(C4CCN(C(=O)CO)CC4)c3)nc2c1-c1cccc2c1OCC2 [Compound 36, 1-[4-(4-{[7-(2,3-dihydro-1-benzofuran-7-yl)-6-methylthieno[3,2-d]pyrimidinyl-2-yl]amino}-1H-pyrazol-1-yl)piperidinyl-1-yl]-2-hydroxyacetamide]
5.1	8.5	1.9	Cc1sc2cnc(Nc3cnn(C)c3)nc2c1-c1cccc2c1OCO2 [Compound 30, N-[7-(2H-1,3-benzodioxol-4-yl)-6-methylthieno[3,2-d]pyrimidinyl-2-yl]-1-methyl-1H-pyrazol-4-amine]
1.7	6.8	1.7	COc1ccccc1-c1c(C)sc2cnc(Nc3cnn(C)c3)nc12 [Compound 1, N-[7-(2-methoxyphenyl)-6-methylthieno[3,2-d]pyrimidinyl-2-yl]-1-methyl-1H-pyrazol-4-amine]
4.5	20	4.3	COc1cc(OCCCN2CCCC2)ccc1-c1c(C)sc2cnc(Nc3cnn(C)c3)nc12 [Compound 18, N-(7-{2-methoxy-4-[3-(1-pyrrolidinyl)propoxy]phenyl}-6-methylthieno[3,2-d]pyrimidinyl-2-yl)-1-methyl-1H-pyrazol-4-amine]
1.6	12	1.6	COc1ccccc1-c1c(C)sc2cnc(Nc3cnn(CCCN4CCCC4)c3)nc12 [Compound 26, N-[7-(2-methoxyphenyl)-6-methylthieno[3,2-d]pyrimidinyl-2-yl]-1-[3-(1-pyrrolidinyl)propyl]-1H-pyrazol-4-amine]
1.5	43	1.7	COc1ccccc1-c1c(C)sc2cnc(Nc3cnn(CCN4CCN(C)CC4)c3)nc12 [Compound 22]
1.3	9	0.94	COc1cc(OCCCS(C)(=O)=O)ccc1-c1c(C)sc2cnc(Nc3cnn(CCO)c3)nc12 [Compound 24, 2-(4-{[7-(4-(3-methylsulfonylpropoxy)-2-methoxyphenyl]-6-methylthieno[3,2-d]pyrimidinyl-2-yl}amino)-1H-pyrazol-1-yl]-1-ethanol]
3.6	10.6	1.1	Cc1sc2cnc(Nc3cnn(C)c3)nc2c1-c1ccccc1OC(F)F [Compound 10, N-{7-[2-(difluoromethoxy)phenyl]-6-methylthieno[3,2-d]pyrimidinyl-2-yl]-1-methyl-1H-pyrazol-4-amine]
29	47	13	COc1ccncc1-c1c(C)sc2cnc(Nc3cnn(C)c3)nc12 [Compound 42]
1.3	3.6	0.6	COc1ccccc1-c1c(C)sc2cnc(Nc3cnn(C4CCN(C)CC4)c3)nc12 [Compound 25, N-[7-(2-methoxyphenyl)-6-methylthieno[3,2-d]pyrimidinyl-2-yl]-1-(1-methylpiperidin-4-yl)-1H-pyrazol-4-amine]
